The DC50 is the concentration at which degradation of the target reaches its halfway point. The low end stands for a more potent degrader, the high end for a less potent degrader. The inhibition is the change of the read-out against control, counted positive when it falls. The low end stands for a weak effect, the high end for a strong effect.

This note sets out measurements from patent US20260265238A1, “COMPOUNDS AND PHARMACEUTICAL COMPOSITIONS THAT DEGRADE SWI/SNF-RELATED MATRIX-ASSOCIATED ACTIN-DEPENDENT REGULATOR OF CHROMATIN SUBFAMILY A” (Plexium, Inc., priority 2023, published 2026).

Structures are written as SMILES.

Test [1] deals with T1, SMARCA2-HiBiT HeLa cells (protein which is expressed from the SMARCA2 gene) (Homo sapiens, UniProt P51531).
T1 construct: protein which is expressed from the SMARCA2 and SMARCA4 genes; host or cells: HeLa (SMARCA2-HiBiT engineered line)
T1 sequence (P51531 whole entry): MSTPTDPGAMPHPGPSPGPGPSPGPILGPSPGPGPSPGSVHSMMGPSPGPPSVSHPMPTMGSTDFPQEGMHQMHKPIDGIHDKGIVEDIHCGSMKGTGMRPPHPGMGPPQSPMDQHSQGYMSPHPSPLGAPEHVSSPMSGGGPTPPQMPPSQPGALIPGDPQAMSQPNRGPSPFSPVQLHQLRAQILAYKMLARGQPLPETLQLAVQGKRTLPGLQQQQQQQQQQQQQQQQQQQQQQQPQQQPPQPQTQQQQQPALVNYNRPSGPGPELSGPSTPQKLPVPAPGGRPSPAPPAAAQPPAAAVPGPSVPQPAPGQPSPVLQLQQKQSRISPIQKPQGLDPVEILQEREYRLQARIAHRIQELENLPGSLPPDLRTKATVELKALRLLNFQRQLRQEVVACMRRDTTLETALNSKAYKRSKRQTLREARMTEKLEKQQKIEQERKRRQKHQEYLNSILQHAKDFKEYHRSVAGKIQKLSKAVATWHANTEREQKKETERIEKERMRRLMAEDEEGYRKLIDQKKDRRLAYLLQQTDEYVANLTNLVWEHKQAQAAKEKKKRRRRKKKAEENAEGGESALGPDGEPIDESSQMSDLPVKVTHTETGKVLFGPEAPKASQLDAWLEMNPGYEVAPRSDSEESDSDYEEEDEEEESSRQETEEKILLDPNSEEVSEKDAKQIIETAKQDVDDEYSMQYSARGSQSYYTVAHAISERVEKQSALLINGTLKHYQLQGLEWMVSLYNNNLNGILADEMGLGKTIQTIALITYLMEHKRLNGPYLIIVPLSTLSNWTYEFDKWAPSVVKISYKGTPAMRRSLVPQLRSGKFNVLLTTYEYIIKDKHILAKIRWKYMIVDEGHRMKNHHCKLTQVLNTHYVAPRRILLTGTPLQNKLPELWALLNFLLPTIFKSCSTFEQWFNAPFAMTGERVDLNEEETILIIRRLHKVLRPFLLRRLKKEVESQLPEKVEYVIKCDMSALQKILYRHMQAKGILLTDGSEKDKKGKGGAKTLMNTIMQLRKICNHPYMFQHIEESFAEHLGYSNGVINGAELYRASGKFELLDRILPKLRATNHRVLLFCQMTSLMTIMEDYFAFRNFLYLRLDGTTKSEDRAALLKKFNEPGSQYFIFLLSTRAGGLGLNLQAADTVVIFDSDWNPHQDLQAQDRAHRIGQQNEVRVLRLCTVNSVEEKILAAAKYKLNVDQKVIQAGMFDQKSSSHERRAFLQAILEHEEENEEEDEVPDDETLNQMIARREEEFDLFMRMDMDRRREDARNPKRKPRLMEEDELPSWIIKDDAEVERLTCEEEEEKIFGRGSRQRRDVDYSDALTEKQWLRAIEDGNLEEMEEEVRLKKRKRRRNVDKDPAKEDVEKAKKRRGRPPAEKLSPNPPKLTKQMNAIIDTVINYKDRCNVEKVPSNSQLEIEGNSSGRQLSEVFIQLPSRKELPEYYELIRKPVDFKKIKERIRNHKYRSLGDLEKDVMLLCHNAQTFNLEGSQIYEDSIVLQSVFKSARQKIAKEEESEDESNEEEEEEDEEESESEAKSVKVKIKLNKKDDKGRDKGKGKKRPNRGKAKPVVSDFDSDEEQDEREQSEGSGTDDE
In words: SMARCA2 degradation assay (HiBiT-fusion HeLa cell line, 24 h, luminescence). It is filed as cell-based. In short, it runs like this:
(§1)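 HeLa cells carrying HiBiT-tagged SMARCA2 or SMARCA4 were seeded at 8,000 cells/well, allowed to attach overnight at 37° C., then given compounds in a 10-point dilution series (typically 10 μM to 300 pM) for 24 hours at 37° C. Remaining tagged protein was read by HiBiT lytic luminescence, and DC50s came from dose-response curves.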
In general terms: HiBiT is a short tag that completes a luciferase, so light tracks the accessible tagged protein.

Test [2] addresses T2, SMARCA4-HiBiT HeLa cells (protein which is expressed from the SMARCA4 gene) (Homo sapiens, UniProt P51532).
T2 construct: protein which is expressed from the SMARCA2 and SMARCA4 genes; host or cells: HeLa (SMARCA4-HiBiT engineered line)
The experiment in a line: SMARCA4 degradation assay (HiBiT-fusion HeLa cell line, 24 h, luminescence). Format: cell-based. In outline: as §1

T2 sequence (P51532 whole entry): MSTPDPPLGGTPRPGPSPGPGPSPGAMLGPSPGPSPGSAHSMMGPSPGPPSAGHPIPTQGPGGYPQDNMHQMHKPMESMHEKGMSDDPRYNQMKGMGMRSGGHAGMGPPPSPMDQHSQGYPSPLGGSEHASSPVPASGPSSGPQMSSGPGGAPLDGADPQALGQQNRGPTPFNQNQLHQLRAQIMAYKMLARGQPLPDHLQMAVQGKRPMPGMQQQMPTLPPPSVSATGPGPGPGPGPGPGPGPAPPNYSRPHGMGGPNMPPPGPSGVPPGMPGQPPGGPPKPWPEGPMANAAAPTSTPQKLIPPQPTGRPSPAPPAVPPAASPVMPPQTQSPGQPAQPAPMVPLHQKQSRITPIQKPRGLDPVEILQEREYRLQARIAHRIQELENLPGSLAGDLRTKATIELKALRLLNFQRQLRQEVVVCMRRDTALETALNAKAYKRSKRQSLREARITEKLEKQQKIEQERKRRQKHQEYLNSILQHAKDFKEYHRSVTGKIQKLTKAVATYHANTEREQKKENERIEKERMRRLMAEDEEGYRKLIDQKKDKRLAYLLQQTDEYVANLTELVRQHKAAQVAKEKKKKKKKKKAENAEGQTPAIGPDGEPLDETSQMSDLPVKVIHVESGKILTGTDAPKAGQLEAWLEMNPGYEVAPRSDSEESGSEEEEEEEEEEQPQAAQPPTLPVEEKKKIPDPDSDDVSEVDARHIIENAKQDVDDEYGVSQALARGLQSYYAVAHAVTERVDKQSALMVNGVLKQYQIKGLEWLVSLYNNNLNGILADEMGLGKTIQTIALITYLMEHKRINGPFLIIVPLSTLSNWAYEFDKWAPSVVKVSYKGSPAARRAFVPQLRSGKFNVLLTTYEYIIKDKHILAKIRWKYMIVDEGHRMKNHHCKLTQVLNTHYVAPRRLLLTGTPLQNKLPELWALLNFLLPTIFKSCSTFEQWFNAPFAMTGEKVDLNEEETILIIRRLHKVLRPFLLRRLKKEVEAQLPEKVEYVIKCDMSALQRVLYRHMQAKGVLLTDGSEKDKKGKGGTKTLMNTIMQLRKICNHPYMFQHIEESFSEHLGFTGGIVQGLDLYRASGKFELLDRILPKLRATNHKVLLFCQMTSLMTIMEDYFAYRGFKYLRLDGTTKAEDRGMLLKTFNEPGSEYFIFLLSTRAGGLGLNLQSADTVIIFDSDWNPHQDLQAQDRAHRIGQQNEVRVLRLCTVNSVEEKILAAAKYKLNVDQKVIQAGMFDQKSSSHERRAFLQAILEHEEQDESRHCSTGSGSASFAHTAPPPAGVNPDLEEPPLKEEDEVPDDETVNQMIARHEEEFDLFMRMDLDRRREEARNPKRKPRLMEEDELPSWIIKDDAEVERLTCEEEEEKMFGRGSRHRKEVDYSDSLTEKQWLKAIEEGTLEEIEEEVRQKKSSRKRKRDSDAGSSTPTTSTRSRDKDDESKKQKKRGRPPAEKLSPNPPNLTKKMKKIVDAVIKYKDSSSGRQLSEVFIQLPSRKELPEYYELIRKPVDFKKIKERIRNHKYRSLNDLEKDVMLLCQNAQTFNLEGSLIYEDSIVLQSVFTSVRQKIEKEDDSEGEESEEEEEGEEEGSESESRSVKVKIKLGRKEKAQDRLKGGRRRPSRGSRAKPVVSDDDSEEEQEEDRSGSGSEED

Regarding `C[C@@H]1CCN(c2cc(-c3ccccc3O)nnc2N)CCN1c1ccc(C#N)c(C#CCN2CC(F)(F)[C@H]2C)n1` [Compound P-413, 6-{(R)-4-[3-amino-6-(o-hydroxyphenyl)-4-pyridazinyl]-7-methyl-1,4-diazepan-1-y1}-2-{3-[(R)-3,3-difluoro-2-methyl-1-azetidinyl]-1-propynyl} nicotinonitrile], in test [1], the DC50 was in the range of 50 to 500 nM and the “SMARCA2 % Degradation @ 1 μM” value is “++ (++=30-70%)”. The DC50 in test [2] is over 5000 nM.

For `C[C@@H]1CCN(c2cc(-c3ccccc3O)nnc2N)CCN1c1cc(C#CCN2CCCCC2)ncc1F` [Compound P-414, 0-(5-{(R)-4-[5-fluoro-2-(3-piperidino-1-propynyl)-4-pyridyl]-5-methyl-1,4-diazepan-1-yl}-6-amino-3-pyridazinyl)phenol], in test [1], the DC50 lay in the range of 50 to 500 nM and the “SMARCA2 % Degradation @ 1 μM” value is recorded as “+ (+=<30%)”. In test [2], this molecule showed a 50% degradation concentration (DC50) of 50 to 500 nM and an inhibition at 1 µM of 30 to 70%.

`C[C@H]1CCN(c2cc(-c3ccccc3O)nnc2N)CCN1c1ccc(C#N)c(C#CCN(C)CC(F)(F)F)n1` [Compound P-415, 2-{3-[N-methyl(2,2,2-trifluoroethyl)amino]-1-propynyl}-6-{(S)-4-[3-amino-6-(o-hydroxyphenyl)-4-pyridazinyl]-7-methyl-1,4-diazepan-1-yl}nicotinonitrile]: in test [1], the DC50 was in the range of 50 to 500 nM and the “SMARCA2 % Degradation @ 1 μM” value is given as “++ (++=30-70%)”. In test [2], this molecule had a DC50 of 50 to 500 nM and an inhibition at 1 µM of 30 to 70%.

`C[C@@H]1CCN(c2cc(-c3ccccc3O)nnc2N)CCN1c1ccc(C#N)c(C#CCN2CCC(F)(F)CC2)n1` [Compound P-416, 6-{(R)-4-[3-amino-6-(o-hydroxyphenyl)-4-pyridazinyl]-7-methyl-1,4-diazepan-1-yl}-2-[3-(4,4-difluoro-1-piperidyl)-1-propynyl]nicotinonitrile]: in test [1], the DC50 was 50 to 500 nM and the “SMARCA2 % Degradation @ 1 μM” value was “+++ (+++=>70%)”. In test [2], this molecule yielded a DC50 of 50 to 500 nM and an inhibition at 1 µM of over 70%.

Turning to `C[C@@H]1CCN(c2cc(-c3ccccc3O)nnc2N)CCN1c1cc(C#CCn2ccnc2)ncc1F` [Compound P-417, 0-{5-[(R)-4-{5-fluoro-2-[3-(1-imidazolyl)-1-propynyl]-4-pyridyl}-5-methyl-1,4-diazepan-1-yl]-6-amino-3-pyridazinyl} phenol], in test [1], the DC50 was 50 to 500 nM and the “SMARCA2 % Degradation @ 1 μM” value was “++ (++=30-70%)”. In addition, in test [2], the half-maximal degradation concentration (DC50) lay within 50 to 500 nM and the inhibition at 1 µM was 30 to 70%.

Take `CC1CC(C)N1CC#Cc1cc(N2CCN(c3cc(-c4ccccc4O)nnc3N)CC[C@H]2C)ccn1` (stereo partly drawn) [Compound P-418, 0-{5-[(R)-4-{2-[3-(2,4-dimethyl-1-azetidinyl)-1-propynyl]-4-pyridy1}-5-methyl-1,4-diazepan-1-yl]-6-amino-3-pyridazinyl}phenol]: in test [1], the 50% degradation concentration (DC50) is under 50 nM and the “SMARCA2 % Degradation @ 1 μM” value is recorded as “+++ (+++=>70%)”. In test [2], this molecule showed a DC50 of under 50 nM and an inhibition at 1 µM of 30 to 70%.

`C[C@@H]1CCN(c2cc(-c3ccccc3O)nnc2N)CCN1c1cc(C#CCN(C)C)ncc1F` [Compound P-419, 0-{5-[(R)-4-{2-[3-(dimethylamino)-1-propynyl]-5-fluoro-4-pyridy1}-5-methyl-1,4-diazepan-1-yl]-6-amino-3-pyridazinyl}phenol]: in test [1], the 50% degradation concentration (DC50) was 50 to 500 nM and the “SMARCA2 % Degradation @ 1 μM” value is “+ (+=<30%)”. For the same molecule, in test [2], the DC50 is 50 to 500 nM and the inhibition at 1 µM was under 30%.

As for `C[C@@H]1CCN1CC#Cc1cc(N2CCN(c3cc(-c4ccccc4O)nnc3N)CC[C@H]2C)ccn1` [Compound P-420, 0-{5-[(R)-4-(2-{3-[(R)-2-methyl-1-azetidinyl]-1-propynyl}-4-pyridyl)-5-methyl-1,4-diazepan-1-yl]-6-amino-3-pyridaziny1}phenol], in test [1], the DC50 was under 50 nM and the “SMARCA2 % Degradation @ 1 μM” value is “+++ (+++=>70%)”. In test [2], this molecule displayed a DC50 of under 50 nM and an inhibition at 1 µM of 30 to 70%.

Consider `C[C@@H]1CCN(c2cc(-c3ccccc3O)nnc2N)CCN1c1ccnc(C#CCN2CC(F)(F)C2)c1` [Compound P-421, 0-{5-[(R)-4-{2-[3-(3,3-difluoro-1-azetidinyl)-1-propynyl]-4-pyridyl}-5-methyl-1,4-diazepan-1-yl]-6-amino-3-pyridazinyl}phenol], for which, in test [1], the DC50 lay within 50 to 500 nM and the “SMARCA2 % Degradation @ 1 μM” value is listed as “++ (++=30-70%)”. Besides, in test [2], the DC50 was under 50 nM and the inhibition at 1 µM was in the range of 30 to 70%.

For `C[C@@H]1CCN(c2cc(-c3ccccc3O)nnc2N)CCN1c1ccnc(C#CCN2[C@H](C)COC[C@@H]2C)c1` [Compound P-422, 0-{5-[(R)-4-(2-{3-[(3R,5S)-3,5-dimethyl-4-morpholiny1]-1-propynyl}-4-pyridyl)-5-methyl-1,4-diazepan-1-yl]-6-amino-3-pyridazinyl}phenol], in test [1], the half-maximal degradation concentration (DC50) was 50 to 500 nM and the “SMARCA2 % Degradation @ 1 μM” value is “+ (+=<30%)”. The DC50 in test [2] is under 50 nM.

Turning to `C[C@@H]1CCN(c2cc(-c3ccccc3O)nnc2N)CCN1c1ccc(C#N)c(C#CCN(C)C)n1` [Compound P-423, 6-{(R)-4-[3-amino-6-(0-hydroxyphenyl)-4-pyridaziny1]-7-methyl-1,4-diazepan-1-yl}-2-[3-(dimethylamino)-1-propynyl]nicotinonitrile], in test [1], the DC50 was under 50 nM and the “SMARCA2 % Degradation @ 1 μM” value was “++ (++=30-70%)”. Also, in test [2], the DC50 is under 50 nM and the inhibition at 1 µM is 30 to 70%.

Regarding `C[C@@H]1CCN(c2cc(-c3ccccc3O)nnc2N)CCN1c1ccnc(C#CCn2cncn2)c1` [Compound P-424, 0-{5-[(R)-5-methyl-4-{2-[3-(1H-1,2,4-triazol-1-yl)-1-propynyl]-4-pyridyl}-1,4-diazepan-1-yl]-6-amino-3-pyridaziny1} phenol], in test [1], the DC50 fell in the range of 50 to 500 nM and the “SMARCA2 % Degradation @ 1 μM” value was “+++ (+++=>70%)”. Further, in test [2], the DC50 lay within 50 to 500 nM and the inhibition at 1 µM lay within 30 to 70%.

Consider `C[C@@H]1CCN(c2cc(-c3ccccc3O)nnc2N)CCN1c1ccnc(C#CCN2CCCCC2)c1` [Compound P-425, 0-(5-{(R)-5-methyl-4-[2-(3-piperidino-1-propynyl)-4-pyridyl]-1,4-diazepan-1-yl}-6-amino-3-pyridazinyl)phenol], for which, in test [1], the DC50 was under 50 nM and the “SMARCA2 % Degradation @ 1 μM” value is “++ (++=30-70%)”. Also, in test [2], the DC50 was under 50 nM and the inhibition at 1 µM was in the range of 30 to 70%.

Take `C[C@@H]1CCN(c2cc(-c3ccccc3O)nnc2N)CCN1c1ccnc(C#CCN2CCOCC2)c1` [Compound P-426, 0-(5-{(R)-5-methyl-4-[2-(3-morpholino-1-propynyl)-4-pyridyl]-1,4-diazepan-1-yl}-6-amino-3-pyridazinyl)phenol]: in test [1], the DC50 lay in the range of 50 to 500 nM and the “SMARCA2 % Degradation @ 1 μM” value was “++ (++=30-70%)”. Besides, in test [2], the half-maximal degradation concentration (DC50) is 50 to 500 nM and the inhibition at 1 µM was in the range of 30 to 70%.

As to `C[C@@H]1CCN(c2cc(-c3ccccc3O)nnc2N)CCN1c1ccnc(C#CCN(C)C)c1` [Compound P-427, 0-{5-[(R)-4-{2-[3-(dimethylamino)-1-propynyl]-4-pyridyl}-5-methyl-1,4-diazepan-1-yl]-6-amino-3-pyridazinyl}phenol], in test [1], the DC50 was under 50 nM and the “SMARCA2 % Degradation @ 1 μM” value is reported as “+++ (+++=>70%)”. In test [2], this molecule came in with a DC50 of under 50 nM and an inhibition at 1 µM of 30 to 70%.

`C[C@@H]1CCN(c2cc(-c3ccccc3O)nnc2N)CCN1c1ccnc(C#CCn2ccnc2)c1` [Compound P-428, 0-{5-[(R)-4-{2-[3-(1-imidazolyl)-1-propynyl]-4-pyridyl}-5-methyl-1,4-diazepan-1-yl]-6-amino-3-pyridazinyl}phenol]: in test [1], the DC50 fell in the range of 50 to 500 nM and the “SMARCA2 % Degradation @ 1 μM” value was “+++ (+++=>70%)”. In addition, in test [2], the DC50 was 50 to 500 nM and the inhibition at 1 µM was over 70%.

`C[C@@H]1CCN(c2cc(-c3ccccc3O)nnc2N)CCN1c1ccc(C#N)c(C#CCn2ccnc2)n1` [Compound P-429, 6-{(R)-4-[3-amino-6-(o-hydroxyphenyl)-4-pyridazinyl]-7-methyl-1,4-diazepan-1-y1}-2-[3-(1-imidazolyl)-1-propynyl]nicotinonitrile]: in test [1], the DC50 is 50 to 500 nM and the “SMARCA2 % Degradation @ 1 μM” value is “+++ (+++=>70%)”. In test [2], this molecule yielded a DC50 of 50 to 500 nM and an inhibition at 1 µM of 30 to 70%.

As to `CC(C)(C)OC(=O)NCC#Cc1cccc(N2CCCN(c3cc(-c4ccccc4O)nnc3N)CC2)n1` [Compound P-432, 3-(6-{4-[3-amino-6-(o-hydroxyphenyl)-4-pyridaziny1]-1,4-diazepan-1-yl}-2-pyridyl)-2-propynyl 2-methyl-2-propanecarbamate], the DC50 in test [1] is 500 to 5000 nM; in test [2] it was over 5000 nM.
